One compound from patent US6376553B1, “Treatment of pain” (Knoll Pharmaceutical Company, priority 1999, dated 2002) can be followed below.

For this assay, the target named is [3H]Noradenaline reuptake (Rattus norvegicus, UniProt Q9WTR4). Kind of assay: biochemical.

Molecules are shown by their SMILES.

Chain of [3H]Noradenaline reuptake (Q9WTR4 1-597): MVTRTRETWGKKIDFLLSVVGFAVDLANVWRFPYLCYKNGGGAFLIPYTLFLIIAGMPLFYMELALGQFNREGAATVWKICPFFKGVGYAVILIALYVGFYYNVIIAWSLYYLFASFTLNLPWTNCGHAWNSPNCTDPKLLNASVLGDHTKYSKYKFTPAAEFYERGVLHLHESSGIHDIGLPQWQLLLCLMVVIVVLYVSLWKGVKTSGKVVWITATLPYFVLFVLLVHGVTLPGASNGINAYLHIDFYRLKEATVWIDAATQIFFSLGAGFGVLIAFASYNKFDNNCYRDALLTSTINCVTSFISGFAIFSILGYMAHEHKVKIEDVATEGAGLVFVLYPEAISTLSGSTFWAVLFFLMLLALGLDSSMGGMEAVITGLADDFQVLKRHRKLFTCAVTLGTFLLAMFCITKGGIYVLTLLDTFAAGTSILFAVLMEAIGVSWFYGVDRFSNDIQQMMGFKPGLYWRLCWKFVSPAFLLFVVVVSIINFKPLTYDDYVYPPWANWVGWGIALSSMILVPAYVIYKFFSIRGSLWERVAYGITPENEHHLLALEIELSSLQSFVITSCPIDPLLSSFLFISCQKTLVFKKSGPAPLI

As for `CC(NC(C)(C)C)C(=O)c1cccc(Cl)c1` (stereo not shown) [Bupropion], the Ki (usually the dissociation constant of the complex between target and ligand, obtained from inhibition or displacement) is 2590 nM.
